From patent US12383515B2, “Compositions and methods of use of γ-ketoaldehyde scavengers for treating, preventing or improving nonalcoholic fatty liver disease (NAFLD), NASH, ALD or conditions related to the liver” (MTI Biotech, Inc., priority 2016, dated 2025)
“Also recorded” adds a separate entry of the source.

How the values were obtained:
C57/BL6J mice = assay: NIAAA ethanol model (10 days ethanol in LDLD + binge) of alcoholic liver injury; assay type: in vivo, mouse; settings: for Basophils / WBC / eosinophils, % of WBC / lymphocytes, % of WBC / monocytes, % of WBC: 0.5 g/L in LDLD; for AST: serum
Protocol: 2-HOBA and ethanol were concurrently administered to C57/BL6J mice to establish the efficacy of 2-HOBA in mitigating ethanol-mediated liver dysfunction (increased AST and ALT), reducing γ-KA formation, favorably altering immune responses and stimulating beneficial intracellular signaling pathways. […] 2-HOBA (0.5 g/L in Lieber-DeCarli liquid diet, LDLD) was administered to mice prior to ethanol treatment for 14 days to examine 2-HOBA efficacy in mitigating liver injury. Ethanol (5% v/v) was administered using the NIAAA model (10 days ethanol in LDLD+binge). […] White blood cell and lymphocyte cell counts were reduced while eosinophil and basophil counts were increased with ethanol relative to maltodextrin feeding (Table 1), consistent with other reports of alcoholic liver injury. Such responses were not observed in the presence of 2-HOBA.
An additional cohort of mice were administered a 14-day pretreatment of 2-HOBA (1.0 g/L) prior to administration of ethanol using the NIAAA model. Mice administered ethanol consumed less food and consequently weighed ˜2.5 g less than maltodextrin-fed controls at the end of study.

HepaRG cells = assay: Ethanol exposure of HepaRG hepatocytes after 2-HOBA pre-treatment; assay type: cell-based, human
mouse hepatocytes = assay: Oxidant mediated cell death induced by t-butylhydroperoxide; assay type: cell-based; settings: FIG. 3
From the text: There is considerable interest in identifying appropriate therapeutic interventions aimed at inhibiting the inflammatory processes and interrupting the immunogenic pathways associated with ALD.
This is a remarkable finding given the fact the pathogenesis of oxidative injury is quite complex and multifaceted. […] Obviously, the efficacy of 2-HOBA depends on its accumulation in target tissues, and this was recently supported by pharmacokinetic studies in an in vivo mouse model. […] The levels in the liver were about 10 times higher than in plasma.

cyclooxygenase enzymes = settings: cited from earlier work
[1] = 1, 3, and 10 g/L for 7 days; cited from earlier work
HepG2 cells = settings: varying concentrations of H2O2; cited from earlier work
DIAMOND mice = assay: DIAMOND mouse model of NAFLD/NASH; assay type: in vivo; settings: 1 g/L in drinking water, Western diet
Protocol: Twelve 8-wk old male DIAMOND mice were placed on ad libitum high fat diet (Harlan—ENVIGO TD.88317) and water containing glucose (18.9% w/v) and fructose (23.1% w/v); all mice remained on this diet throughout the study protocol. […] The vehicle control group received water without 2-HOBA (with glucose and fructose). Body weight and food intake were measured weekly. At ˜23 wks of age, all animals underwent a glucose tolerance test (GTT) and MRI imaging to assess hepatic fat. For the GTT, animals were fasted for 12 hours and then glucose (2 g/kg bw of a 100 mg/mL glucose in sterile water) was administered by oral gavage. Blood was sampled at 0, 15, 30, 45, 60, 90, and 120 minutes after glucose administration and area under the curve was calculated. Animals were sacrificed at 24 wks of age (12 weeks of 2-HOBA or vehicle treatment). Tissues and serum were collected for analysis.
Serum levels of glucose, alanine transaminase, and aspartate transaminase were measured. […] Significance was set at α=0.05.

[2] = 2-HOBA + ETOH, 2-HOBA 1.0 g/L, 14-day pretreatment
[3] = 2-HOBA + MD, 2-HOBA 1.0 g/L, 14-day pretreatment
[4] = 1 g/L in drinking water, 6 weeks, vs vehicle

With `NCc1ccccc1O` [2-HOBA, 2-Hydroxybenzylamine] the body weight (C57/BL6J mice; 0.5 g/L 2-HOBA in LDLD) was “not significantly impacted”, the food intake (C57/BL6J mice; 0.5 g/L 2-HOBA in LDLD) was “not significantly impacted” and the “increases in serum ALT” value (C57/BL6J mice; 2-HOBA 0.5 g/L) was “did not attenuate”. The “increases in serum AST” value (C57/BL6J mice; 2-HOBA 0.5 g/L) was “did not attenuate”, the “hepatic isofurans (IsoF)” value (C57/BL6J mice; 2-HOBA 1.0 g/L + ETOH, FIG. 8) was “significant reductions; also recorded: ameliorated” and the “hepatic isoprostanes (IsoP)” value (C57/BL6J mice; 2-HOBA 1.0 g/L + ETOH, FIG. 8) was “significant reductions; also recorded: ameliorated”. For the same compound, the kidney isoprostane levels (C57/BL6J mice; 2-HOBA 1.0 g/L + ETOH, P<0.05 versus Con+ETOH) was 1.3 ± 0.1 ng/g, the Basophils (C57/BL6J mice; 2-HOBA + ETOH) was 1.27 ± 0.26^# x10^3/μl and the WBC (C57/BL6J mice; 2-HOBA + ETOH) was 3.11 ± 0.66 x10^3/μl. It also gave an eosinophils, % of WBC (C57/BL6J mice; 2-HOBA + ETOH) of 2.71 ± 0.46%, a lymphocytes, % of WBC (C57/BL6J mice; 2-HOBA + ETOH) of 50.4 ± 4.59% and a monocytes, % of WBC (C57/BL6J mice; 2-HOBA + ETOH) of 6.33 ± 1.11%. The ALT (C57/BL6J mice; 2-HOBA + ETOH, 2-HOBA 0.5 g/L) was 443.7 ± 66.2 U/L, the AST (C57/BL6J mice; 2-HOBA + ETOH, 2-HOBA 0.5 g/L) was 1725.0 ± 300.2 U/L and the “BUN (blood urea nitrogen)” value (C57/BL6J mice; 2-HOBA + ETOH, 2-HOBA 1.0 g/L) was 22.6 ± 1.7 mg/dL. The “CRE (creatinine)” value (C57/BL6J mice; 2-HOBA + ETOH, 2-HOBA 1.0 g/L) was 0.3 ± 0.04 mg/dL, the ALT (C57/BL6J mice; [2]) was 164.4±20.8 U/L and the AST (C57/BL6J mice; [2]) was 676.6±86.7 U/L. The WBC (C57/BL6J mice; 2-HOBA + MD (maltodextrin)) was 6.08 ± 1.05 x10^3/μl, the Basophils (C57/BL6J mice; 2-HOBA + MD) was 0.60 ± 0.14 x10^3/μl and the eosinophils, % of WBC (C57/BL6J mice; 2-HOBA + MD) was 1.79 ± 0.4%. It also gave a lymphocytes, % of WBC (C57/BL6J mice; 2-HOBA + MD) of 58.1 ± 5.45%, a monocytes, % of WBC (C57/BL6J mice; 2-HOBA + MD) of 6.66 ± 0.92% and an ALT (C57/BL6J mice; 2-HOBA + MD, 2-HOBA 0.5 g/L) of 54.3 ± 20.1 U/L. The AST (C57/BL6J mice; 2-HOBA + MD, 2-HOBA 0.5 g/L) was 566.5 ± 34.1 U/L, the “BUN (blood urea nitrogen)” value (C57/BL6J mice; 2-HOBA + MD, 2-HOBA 1.0 g/L) was 34.6 ± 2.9 mg/dL and the “CRE (creatinine)” value (C57/BL6J mice; 2-HOBA + MD, 2-HOBA 1.0 g/L) was 0.3 ± 0.05 mg/dL. For the same compound, the ALT (C57/BL6J mice; [3]) was 127.5 ± 78.59 U/L, the AST (C57/BL6J mice; [3]) was 693.6 ± 173.1 U/L and the hepatic triglyceride content (C57/BL6J mice; ETOH-challenged mice pre-treated with 2-HOBA 1.0 g/L) was “trended to be lower”. For the same compound, the “ethanol responses: reduced white blood cell and lymphocyte counts, increased eosinophil and basophil counts” value (C57/BL6J mice; ethanol relative to maltodextrin feeding, 0.5 g/L 2-HOBA) was “not observed”, the kidney isoprostane formation (C57/BL6J mice; pre-treatment 14 days at 1.0 g/L) was “decreased” and the “liver injury (elevated γ-KAs and liver function enzymes) upon ethanol exposure” value (C57/BL6J mice; pre-treatment with 2-HOBA 1.0 mg/ml (1.0 g/L), 14 days) was “significantly reduces; also recorded: reduced”. The “reactive oxygen species formation” value (HepaRG cells; 24 hr pre-treatment 0, 250, 500 and 1000 μM, ethanol 0-200 mM, 24 hr, FIG. 4A) was “did not affect”, the “cell death by ethanol” value (HepaRG cells; 24 hr pre-treatment 0, 250, 500 and 1000 μM, ethanol 0-200 mM, 24 hr, FIG. 4B) was “almost completely prevented” and the “ALT levels in culture media” value (HepaRG cells; 24 hr pre-treatment 0, 250, 500 and 1000 μM, ethanol 0-200 mM, 24 hr, FIG. 5A) was “near normalization”. For the same compound, the “AST levels in culture media” value (HepaRG cells; 24 hr pre-treatment 0, 250, 500 and 1000 μM, ethanol 0-200 mM, 24 hr, FIG. 5B) was “near normalization”, the “intensity of ~18 kD anti-D11 cross-reactive (γ-KA adducted) band” value (HepaRG cells; pre-treatment 250 or 500 μM for 24 hr, ethanol, SDS-PAGE, D11 ScFv, FIG. 6) was “restored to levels observed in untreated controls” and the “cell death induced by t-butylhydroperoxide (tBHP)” value (mouse hepatocytes) was “almost completely prevented”. For the same compound, the “inhibition of cyclooxygenase enzymes” value (cyclooxygenase enzymes) was “does not inhibit”, the “levels in the liver relative to plasma” value [1] was “about 10 times” and the “liver levels of 2-HOBA” value [1] was “dose-dependent increases”. The “plasma levels of 2-HOBA” value [1] was “dose-dependent increases”, the “oxidant mediated cell death” value (HepG2 cells) was “protective effect” and the liver weight (DIAMOND mice; FIGS. 15-16) was “trend for a reduction”. The “liver enzyme ALT” value (DIAMOND mice; serum, FIG. 16H) was “significant reduction”, the “liver enzyme AST” value (DIAMOND mice; serum, FIG. 16I) was “significant reduction” and the ALT (STAM mice; [4]) was “trending towards reduction”. For the same compound, the insulin (STAM mice; [4]) was “trending towards reduction”, the lipids (STAM mice; [4]) was “trending towards reduction” and the “liver to body weight ratios” value (STAM mice; [4]) was “significantly reduced”. The liver weight (STAM mice; [4]) was “significantly reduced”, the serum isoprostanes (STAM mice; [4]) was “significantly reduced” and the NAFLD severity (STAM mice; FIG. 12) was “reduce”. For the same compound, the NALP1 (STAM mice; liver) was “decrease”, the “expression of pyruvate dehydrogenase kinase 4 (pdk4)” value (STAM mice; liver) was “significantly decreased” and the “signaling through FOXO1” value (STAM mice; liver immunoblot) was “without significantly altering”. The AKT phosphorylation (STAM mice; liver immunoblot, FIG. 13) was “dramatically increased”, the GSK30 phosphorylation (STAM mice; liver immunoblot, FIG. 13) was “dramatically increased” and the “signaling through ERK” value (STAM mice; liver immunoblot, FIG. 13) was “without significantly altering”. The “signaling through mTOR” value (STAM mice; liver immunoblot, FIG. 13) was “without significantly altering”, the “markers of hepatic insulin sensitivity” value (STAM mice; mouse, in vivo) was “restores” and the NLRP1-inflammasome activation (STAM mice; oral 2-HOBA administration) was “blocked”.
